From patent US6803359B2, “Inhibition of abnormal cell growth with corticotropin-releasing hormone analogs” (The Regents of the University of California, priority 1999, dated 2004)
Marks after values point to notes of the source that are not given here.

Assays:
[1] = in vivo, iv
Description: (§3) On the ordinate, the response is given in units of integrated blood pressure observed over a 100 minute period after the intravenous injection of the test substance is pentobarbital-anesthetized rats (no. of animals=8 per group per dose). The area-under-curve, is given in units of mm Hg per minute.

Walker carcinosarcoma = test: Growth of subcutaneously transplanted Walker carcinosarcoma in rats (tumor volume); format: in vivo; settings: 0.1 mg/kg
Description: (§1) This example illustrates the anti-cancer property of an inventive peptide with a D-amino acid as residue 20. Various tumor cells were transplanted into mice or rats and the tumor volume was measured using a caliper-ruler. The volume of the tumor, in cubic mm, was estimated as the long axis×the square of the short axis divided by 2.
(§2) The second experiment and third experiment (data shown in Tables 3 and 4) were conducted on white non-inbred male rats with a subcutaneous transplant of Walker carcinosarcoma or Ehrlich solid carcinoma. Animals after transplantation of tumors were mixed and were divided into groups of controls, CRH-treated and [D-Glu^20] CRH-treated.

[2] = Hypotensive effect in pentobarbital-anesthetized male rats after i.v. injection; settings: 0.05 mg/kg i.v.
Description: as §3

B16 melanoma = test: Growth of subcutaneously transplanted B16 melanoma in mice (tumor volume by caliper); format: in vivo; settings: 0.1 mg/kg s.c. on days 3 to 7
Description: as §1
In the experiment of Table 2, female mice, weighing 20-25 g, of a C57B1 line, were transplanted under the skin with B16 melanoma cells. After transplantation of tumors mice were mixed and divided into groups of controls, CRH-treated and [D-Glu^20] CRH-treated. The test substances at a dose of 0.1 mg/kg subcutaneously or the vehicle control (saline) was injected on days 3 to 7 after tumor transplantation, and the volume of tumors were measured at various days afterwards.

W256 cells = settings: in vitro; cited from earlier work
[3] = tested on: W256 rat mammary carcinoma; settings: 100 micrograms/kg subcutaneously twice a day for 3 days; cited from earlier work
Ehrlich solid carcinoma = test: Growth of subcutaneously transplanted Ehrlich solid carcinoma in rats (tumor volume); format: in vivo; settings: 0.1 mg/kg
Description: as §1, §2

| hypotensive activity compared with unmodified CRH (human/rat) control [1] | Compound | Volume of Tumors (Walker carcinosarcoma; day 7 after transplantation) | Volume of Tumors (Walker carcinosarcoma; day 10 after transplantation) | Volume of Tumors (Walker carcinosarcoma; day 12 after transplantation) | Volume of Tumors (Walker carcinosarcoma; day 14 after transplantation) | average fall in mean blood pressure over a 100 minute period [2] | integrated blood pressure response (area-under-curve) over a 100 minute period [2] | Volume of Tumors (B16 melanoma; day 10 after transplantation) | Volume of Tumors (B16 melanoma; day 12 after transplantation) | Volume of Tumors (B16 melanoma; day 14 after transplantation) | Volume of Tumors (B16 melanoma; day 17 after transplantation) | antiproliferative effects in W256 cell cultures (W256 cells) | inhibition of growth of intracerebrally-injected W256 tumor cells [3] | Volume of Tumors (Ehrlich solid carcinoma; day 9 after transplantation) | Volume of Tumors (Ehrlich solid carcinoma; day 11 after transplantation) | Volume of Tumors (Ehrlich solid carcinoma; day 14 after transplantation) |
| --- | --- | --- | --- | --- | --- | --- | --- | --- | --- | --- | --- | --- | --- | --- | --- | --- |
| much less hypotensive activity | CC[C@H](C)[C@H](NC(=O)[C@@H](NC(=O)[C@H](CCC(=O)O)NC(=O)[C@H](CCSC)NC(=O)[C@H](CC(C)C)NC(=O)[C@H](CCCCN)NC(=O)[C@H](CCCNC(=N)N)NC(=O)[C@H](CC(N)=O)NC(=O)[C@H](CO)NC(=O)[C@H](Cc1c[nH]cn1)NC(=O)[C@H](C)NC(=O)[C@H](CCC(N)=O)NC(=O)[C@H](CCC(N)=O)NC(=O)[C@H](C)NC(=O)[C@H](CC(C)C)NC(=O)[C@H](CCC(N)=O)NC(=O)[C@H](CCC(=O)O)NC(=O)[C@H](C)NC(=O)[C@H](CCCNC(=N)N)NC(=O)[C@H](C)NC(=O)[C@H](CCSC)NC(=O)[C@@H](CCC(=O)O)NC(=O)[C@H](CC(C)C)NC(=O)[C@@H](NC(=O)[C@H](CCC(=O)O)NC(=O)[C@H](CCCNC(=N)N)NC(=O)[C@H](CC(C)C)NC(=O)[C@H](CC(C)C)NC(=O)[C@H](Cc1c[nH]cn1)NC(=O)[C@H](Cc1ccccc1)NC(=O)[C@@H](NC(=O)[C@H](CC(C)C)NC(=O)[C@H](CC(=O)O)NC(=O)[C@H](CC(C)C)NC(=O)[C@H](CO)NC(=O)[C@@H](NC(=O)[C@@H]1CCCN1C(=O)[C@@H]1CCCN1C(=O)[C@H](CCC(=O)O)NC(=O)[C@H](CCC(=O)O)NC(=O)[C@@H](N)CO)[C@@H](C)CC)[C@@H](C)O)C(C)C)[C@@H](C)CC)C(N)=O [[D-Glu^20] CRH] | – | – | – | – | – | – | – | – | – | – | – | – | – | – | – |
| – | hCRH: unmodified human/rat corticotropin-releasing hormone, 41-residue C-terminally amidated peptide, SEQ ID NO 1 | 196 mm^3 | 3600 ± 413 mm^3 | 6942 mm^3 | 10832 mm^3 | 72 mm Hg | approximately 7200 mm Hg-min | 29 + 7* mm^3 | 157 + 23* mm^3 | 133 + 15* mm^3 | 238 + 41 mm^3 | antiproliferative effects | significant inhibition of growth | 226 ± 14* mm^3 | 384 ± 61* mm^3 | 763 ± 114* mm^3 |
